Molecules are shown by their SMILES.

The experiment has as its target Tachykinin NK1 receptor (Bos taurus). As to the kind of experiment: Binding affinity against NK1 receptor by displacement of [3H]SP from bovine retina membranes.
Turning to `Cc1cc(C)cc(C(=O)N2CC[C@H](NCc3ccnc4ccccc34)C[C@H]2Cc2ccc(Cl)cc2)c1` [{(2R,4S)-2-(4-Chloro-benzyl)-4-[(quinolin-4-ylmethyl)-amino]-piperidin-1-yl}-(3,5-dimethyl-phenyl)-methanone], the IC50 worked out at 0.013 µM.

Regarding `Cc1cc(C)cc(C(=O)N2CC[C@H](NCc3ccnc4ccccc34)C[C@H]2Cc2ccc(Cl)cc2Cl)c1` [{(2R,4S)-2-(2,4-Dichloro-benzyl)-4-[(quinolin-4-ylmethyl)-amino]-piperidin-1-yl}-(3,5-dimethyl-phenyl)-methanone], the IC50 worked out at 0.6 µM.

Turning to `Cc1cc(C)cc(C(=O)N2CC[C@H](NCc3ccnc4ccccc34)C[C@H]2CCc2ccccc2)c1` [(3,5-Dimethyl-phenyl)-{(2R,4S)-2-phenethyl-4-[(quinolin-4-ylmethyl)-amino]-piperidin-1-yl}-methanone], the IC50 was 0.19 µM.

The molecule `Cc1cc(C)cc(C(=O)N2CC[C@H](NCc3ccnc4ccccc34)C[C@H]2Cc2ccc(C#N)cc2)c1` [4-{(2R,4S)-1-(3,5-Dimethyl-benzoyl)-4-[(quinolin-4-ylmethyl)-amino]-piperidin-2-ylmethyl}-benzonitrile] registered an IC50 of 0.021 µM.

Molecule `Cc1cc(C)cc(C(=O)N2CC[C@H](NCc3ccnc4ccccc34)C[C@H]2Cc2ccc(Cl)c(Cl)c2)c1` [{(2R,4S)-2-(3,4-Dichloro-benzyl)-4-[(quinolin-4-ylmethyl)-amino]-piperidin-1-yl}-(3,5-dimethyl-phenyl)-methanone] registered an IC50 of 0.009 µM.

`COc1cccc(C[C@@H]2C[C@@H](NCc3ccnc4ccccc34)CCN2C(=O)c2cc(C)cc(C)c2)c1` [(3,5-Dimethyl-phenyl)-{(2R,4S)-2-(3-methoxy-benzyl)-4-[(quinolin-4-ylmethyl)-amino]-piperidin-1-yl}-methanone]: the concentration for half-maximal inhibition (IC50) was found to be 0.027 µM.

Molecule `Cc1cc(C)cc(C(=O)N2CC[C@H](NCc3ccnc4ccccc34)C[C@H]2Cc2ccc3ccccc3c2)c1` [(3,5-Dimethyl-phenyl)-{(2R,4S)-2-naphthalen-2-ylmethyl-4-[(quinolin-4-ylmethyl)-amino]-piperidin-1-yl}-methanone] came in with an IC50 of 0.014 µM.

Consider `Cc1cc(C)cc(C(=O)N2CC[C@H](NCc3ccnc4ccccc34)C[C@H]2Cc2ccc(C(F)(F)F)cc2)c1` [(3,5-Dimethyl-phenyl)-[(2R,4S)-4-[(quinolin-4-ylmethyl)-amino]-2-(4-trifluoromethyl-benzyl)-piperidin-1-yl]-methanone], for which the IC50 came out at 0.011 µM.

The molecule `Cc1cc(C)cc(C(=O)N2CC[C@H](NCc3ccnc4ccccc34)C[C@H]2Cc2ccc(C(N)=O)cc2)c1` [4-{(2R,4S)-1-(3,5-Dimethyl-benzoyl)-4-[(quinolin-4-ylmethyl)-amino]-piperidin-2-ylmethyl}-benzamide] gave an IC50 of 0.1 µM.

With `Cc1cc(C)cc(C(=O)N2CC[C@H](NCc3ccnc4ccccc34)C[C@H]2Cc2ccc([N+](=O)[O-])cc2)c1` [(3,5-Dimethyl-phenyl)-{(2R,4S)-2-(4-nitro-benzyl)-4-[(quinolin-4-ylmethyl)-amino]-piperidin-1-yl}-methanone], the 50% inhibitory concentration (IC50) was found to be 0.003 µM. Compared with the last molecule, the IC50 is about 33-fold lower.

`Cc1cc(C)cc(C(=O)N2CC[C@H](NCc3ccnc4ccccc34)C[C@H]2Cc2cc(Br)cc(Br)c2)c1` [{(2R,4S)-2-(3,5-Dibromo-benzyl)-4-[(quinolin-4-ylmethyl)-amino]-piperidin-1-yl}-(3,5-dimethyl-phenyl)-methanone] yielded an IC50 of 0.052 µM.

In turn, `COc1ccc(C[C@@H]2C[C@@H](NCc3ccnc4ccccc34)CCN2C(=O)c2cc(C)cc(C)c2)cc1` [(3,5-Dimethyl-phenyl)-{(2R,4S)-2-(4-methoxy-benzyl)-4-[(quinolin-4-ylmethyl)-amino]-piperidin-1-yl}-methanone] displayed an IC50 of 0.014 µM.
